Data published in US7528144B2, “Molecules and methods for fluorescence microscopy” (WiSys Technology Foundation, Inc., priority 2005, dated 2009).

Tested on: THP-1 cells
Assay: Photobleaching under repeated exposures in cells
Assay type: cell-based
Conditions: 75-200 nM, repeated CCD exposures (FIG. 25)
Procedure: FIG. 25 depicts (A) InstantLyso LLT-1 at 75 nM in THP-1 cells. Exposures were taken every 30 seconds (with consistent CCD exposure length 7.5 seconds) with blue excitation cube (490 nm maximum).; (B) InstantGolgi McN-1 at 200 nm in THP-1 cells. Exposures were taken with consistent CCD exposure length with purple excitation cube.; (C) InstantLipo Sep-1at 200 nm in THP-1 cells. Exposures were taken with consistent CCD exposure length with purple excitation cube; and (D) Lysotracker Red at 75 nM in THP-1 cells. Exposures were taken every 5 seconds (with consistent CCD exposure length) with green excitation cube. Unretouched, unprocessed images.
The dyes of the present invention hold up well to photobleaching relative to the time needed to take most fluorescence shots (a few seconds).

## CCCCCCN1C(=O)c2cccc3c(NCCN)ccc(c23)C1=O [InstantLyso LLT-1, 6-(2-aminoethyl)amino-2-hexyl-1H-benz[de]isoquinoline-1,3-(2H)-dione]
  resistance to photobleaching: holds up much better than the others
